Where no end group is shown, it is not given here.
Experiments:
[1] = tested on: AVP receptor on splenic lymphocyte; test: Binding of 3H-AVP to receptor on splenic lymphocyte membranes; parameters: species or system mouse; conditions: for DPM (Mean ± SD): 300 nM 3H-AVP
Method: Membranes were prepared as previously described (Torres and Johnson [1988] supra). Freshly dissociated spleen cells were incubated on plastic at 37° C. for 1 hr to remove adherent cells. Plates were washed and non-adherent cells were incubated for an additional hour at 37° C. Washed non-adherent cells were resuspended in 50 mM Tris-HCl buffer (pH 7.4) containing 10 mM EGTA and 10 μM phenylmethylsulfonylfluoride (PMSF), which generally lysed any red blood cells in the preparation. Additional red blood cell lysis was performed using 10 mM potassium bicarbonate buffer containing 16 mM ammonium chloride and 100 μM ethylenediaminetetraacetic acid (EDTA). Cells were washed twice and sonicated on ice using a Fisher Model 300 Sonicator (Fisher Scientific, Pittsburgh, Penna.) with microprobe. Preparations were monitored microscopically and were sonicated until greater than 95% cell rupture was achieved. Sonicated preparations were centrifuged at 1000×g at 4° C. to remove debris and large particles. Supernatants were then spun at 33,000 rpm (55,000×g) at 4° C. for 45 min in a Sorvall UTD65B Ultracentrifuge (T1270 rotor) to isolate membranes. Resulting membrane preparations were resuspended in 50 mM Tris-HCl (pH 7.4) containing 10 mM MgCL2 and 10 μM PMSF, and aliquots were stored at -70° C.
Membranes (30 μg/ml) were incubated in a final volume of 200 μl with cold AVP and/or AVP-binding peptide for 20 min. prior to the addition of 300 nM ^3 H-AVP (specific activity, 70 Ci/mmol; New England Nuclear, Boston, Mass.). Binding was carried out at room temperature for 30 min., at which time samples were placed on ice to stop further binding. Membranes were washed through 0.45 μm filters (GVWP; Millipore, Bedford, Mass.) presoaked in 2% bovine serum albumin (BSA) with approximately 50× volume of ice cold reaction buffer (50 mM Tris-HCl, pH 7.4, 10 mM MgCl2, 2% BSA, 10 μM PMSF). Filters were then placed in scintillation vials and radioactivity was counted on a beta-scintillation counter.

[2] = target: AVP (Homo sapiens, UniProt P01185); test: Solid matrix binding of 3H-AVP to immobilized AVP-binding peptide; conditions: 3H-AVP binding to peptide coupled to a solid matrix, room temperature 1 hr; read-out: apparent KD
Method: FIG. 1--Specific binding of ^3 H-AVP to AVP-binding peptide […] AVP-binding peptide (200 μl of a 2 mg/ml solution) was bound overnight at 4° C. onto 96-well Immulon plates (Dynatech, Alexandria, Va.). Plates were washed three times with phosphate-buffered saline containing 5% BSA and 0.1% TWEEN™ 20 (binding buffer). Remaining binding sites were bound by incubating plates at room temperature with 20 μl binding buffer/well for 2 hr. After extensive washing, cold AVP (10 μM) was added to the appropriate plates 20 min, prior to the addition of ^3 H-AVP. Solid matrix binding was carried out at room temperature for 1 hr. Plates were washed three times and counts were solubilized with 1 N NaOH. Counts were then placed in scintillation vials and counted on a beta-scintillation counter. Specific binding of ^3 H-AVP was the difference between the binding in the absence and presence of cold AVP.
Evidence for such direct interaction is provided by the binding data of FIG. 1, where ^3 H-AVP bound to the peptide coupled to a solid matrix with an apparent KD of approximately 50 nM. The binding was inhibited by excess cold AVP. We conclude that the peptide blocks AVP function through direct binding to AVP.

[3] = tested on: PA helper signal for IFN production; test: Pressinoic acid (PA) help in IFN production in helper cell depleted spleen cell cultures; type: cell-based, mouse

With `NC(=O)CC[C@@H]1NC(=O)[C@H](Cc2ccccc2)NC(=O)[C@H](Cc2ccc(O)cc2)NC(=O)[C@@H](N)CSSC[C@@H](C(=O)N2CCC[C@H]2C(=O)N[C@@H](CCCN=C(N)N)C(=O)NCC(N)=O)NC(=O)[C@H](CC(N)=O)NC1=O` [AVP, Arginine vasopressin] the “effect on binding of 300 nM 3H-AVP to lymphocyte receptors” value ([1]; cold AVP as competitor) was “did compete and block”, the “DPM (Mean ± SD)” value ([1]; competitor 0.1 μM, none = 4,965 ± 226) was 5,265 ± 476 DPM and the “DPM (Mean ± SD)” value ([1]; competitor 1.0 μM) was 4,209 ± 150 DPM. For the same compound, the “DPM (Mean ± SD)” value ([1]; competitor 10.0 μM) was 3,621 ± 347 DPM and the “DPM (Mean ± SD)” value ([1]; competitor 100.0 μM) was 3,577 ± 167 DPM.
Compound TMKVLTGSP [AVP-binding peptide] has a Kd [2] of about 50 nM.
pressinoic acid [PA] gave an IFN ([3]; Table 4, PA (10) (nm), no binding peptide) of 105 ± 21 U/ml, an IFN ([3]; Table 5, PA 3 nM, no complex) of under 3 U/ml and an IFN ([3]; Table 5, PA 10 nM, no complex) of 185 ± 21 U/ml. For the same compound, the IFN ([3]; Table 5, PA 30 nM, no complex) was 250 ± 71 U/ml.

Source: patent US4950650A, “Novel arginine vasopressin-binding peptides” (University of Florida, priority 1988, dated 1990)
